In one test the test system is POSTN mRNA. Description: POSTN mRNA by RT-qPCR in rabbit nasal mucosa. The class given is in vivo. The conditions noted are these: rostral and caudal regions; rabbits, compound 5 10 mM intranasal. The method, then:
Six (6) female NZW rabbits were employed in this study. Rabbits were obtained from Covance (Denver Pa.). Rabbits were between approximately 10 and 12 months of age at the time of study start. At time point 0, all animals received 50 μL of solution containing rabbit IL4 (RND Systems/Biotechne) and human IL13 (PreproTech) at a concentration of 0.25 mg/mL each in 0.5×PBS containing 12.5 mg/mL BSA per nostril. This was administered intranasally via a venous catheter attached to a micropipette. The animal was positioned in a supine manner and the venous catheter inserted into the nostril. The volume was introduced into the nasal cavity and the same procedure was repeated with the other nostril. […]
Relative ALOX15 and POSTN mRNA levels in nasal mucosa were measured by RT-qPCR. […] The level of ALOX15 or POSTN mRNA from each sample was measured in triplicate by real-time qPCR on an Applied Biosystems 7500 Fast Real-Time PCR machine using the TaqMan Gene Expression Assay for rabbit ALOX15 (ThermoFisher, assay #Oc03823548_s1). The level of GAPDH mRNA was measured in biplex reactions using TaqMan Gene Expression Assay (ThermoFisher, assay #Oc03823402_g1) and used to determine relative ALOX15 mRNA levels in each well using the delta-delta Ct method. […] Relative POSTN mRNA levels were measured as above using TaqMan Gene Expression Assay specific for rabbit POSTN mRNA (ThermoFisher, assay #Oc06804808_s1). […]

Test [1] deals with T1, 15-lipoxygenase in primary peripheral blood eosinophils (Homo sapiens, UniProt P16050).
T1 sequence (P16050 1-662): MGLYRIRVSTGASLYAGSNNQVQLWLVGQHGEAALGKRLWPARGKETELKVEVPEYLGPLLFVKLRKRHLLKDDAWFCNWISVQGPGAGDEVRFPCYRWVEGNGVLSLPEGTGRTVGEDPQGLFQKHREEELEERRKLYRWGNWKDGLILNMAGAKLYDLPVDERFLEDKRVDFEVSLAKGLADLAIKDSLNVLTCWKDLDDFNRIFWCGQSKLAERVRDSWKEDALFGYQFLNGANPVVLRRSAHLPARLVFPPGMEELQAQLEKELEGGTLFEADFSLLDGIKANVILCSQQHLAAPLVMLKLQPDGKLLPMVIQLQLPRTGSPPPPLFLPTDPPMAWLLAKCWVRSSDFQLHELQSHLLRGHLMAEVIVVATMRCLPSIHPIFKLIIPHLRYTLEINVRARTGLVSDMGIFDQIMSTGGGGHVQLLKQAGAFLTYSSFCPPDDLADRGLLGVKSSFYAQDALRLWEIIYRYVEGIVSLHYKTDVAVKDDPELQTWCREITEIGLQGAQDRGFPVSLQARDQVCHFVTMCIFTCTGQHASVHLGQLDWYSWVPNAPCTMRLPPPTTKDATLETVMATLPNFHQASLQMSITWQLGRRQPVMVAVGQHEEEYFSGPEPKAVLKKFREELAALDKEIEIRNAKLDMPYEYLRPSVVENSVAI
The test can be described thus: Inhibition of 15-lipoxygenase in human primary eosinophils with short-term exposure, 15-HETE LC-MS/MS. The conditions noted are these: 10 μM for 30 minutes, 3 μM arachidonic acid, 5 minutes.
Description: Two independent experiments were performed in which primary peripheral blood eosinophils (StemExpress) were thawed from frozen and allowed to recover in growth media for 4 hours at 37° C. […] Arachidonic acid was added to final concentration of 3 μM and experiment started. At 5 minutes post-treatment, the entire reaction was quenched with an equal volume of extraction buffer (methanol, 60 mM ascorbic acid, 0.1% acetic acid) and 15-HETE quantified. Briefly, 15-HETE was quantified using LC-MS/MS (QTrap5500, Applied Biosystems). […] Deuterated 15-HETE (Cayman Chemical) was used as the internal standard. […] Oxidized fatty acids were extracted using liquid/liquid extraction with acetonitrile as a diluent. Reverse chromatography was performed using a Unison UK-C18 column (Imtakt, 50×3 mm i.d., 3 μm, PN: UK-032) using a water/acetonitrile gradient containing 0.05% ammonium hydroxide and 0.1% formic acid.

Structures are written as SMILES.

With `O=C(Nc1ccc(F)cc1Cl)c1nn(COP(=O)(O)O)c(Cl)c1Cl` [compound 5, (4,5-dichloro-3-((2-chloro-4-fluorophenyl)carbamoyl)-1H-pyrazol-1-yl)methyl dihydrogen phosphate], in the test on POSTN mRNA, the “relative level of POSTN mRNA in nasal mucosa versus vehicle (FIG. 11)” value is reported as “lower”. For the same compound, the figures for the “less 15-HETE relative to cells treated with vehicle only (FIG. 3)” value in test [1] (Experiment 1) and in test [1] (Experiment 2) were “approximately 79%” and 63%, respectively.

Values taken from patent US11116778B2, “Prodrugs of ALOX-15 inhibitors and methods of using the same” (EMPIRICO INC., priority 2019, dated 2021).
